Source: ChEMBL document CHEMBL1201862, “PubChem BioAssay data set” (2004)
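Exposure lasted 48 hours, with cells grown in 96-well plates and compounds tested at five concentrations. GI50 is the concentration that inhibits growth by half.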 Activity calls are given as the source filed them. Cut-off read from the data, not from the text of the source: active = GI50 up to about 1.1 µM and inactive = higher.

Columns and labels:
Test in all cases: growth of human tumour cells (NCI), 48 h
786-0 = test system: 786-0
A498 = test system: A498
A549 = test system: A549
ACHN = test system: ACHN
BT-549 = test system: BT-549
CAKI-1 = test system: CAKI-1
CCRF-CEM = test system: CCRF-CEM
COLO 205 = test system: COLO 205
DU-145 = test system: DU-145
EKVX = test system: EKVX
HCC 2998 = test system: HCC 2998
HCT-116 = test system: HCT-116
HCT-15 = test system: HCT-15
HL-60 = test system: HL-60
HOP-62 = test system: HOP-62
HOP-92 = test system: HOP-92
HT-29 = test system: HT-29
Hs-578T = test system: Hs-578T
IGROV-1 = test system: IGROV-1
K562 = test system: K562
KM12 = test system: KM12
LOX IMVI = test system: LOX IMVI
M14 = test system: M14
MCF7 = test system: MCF7
MDA-MB-231 = test system: MDA-MB-231
MDA-MB-435 = test system: MDA-MB-435
MDA-N = test system: MDA-N
MOLT-4 = test system: MOLT-4
Malme-3M = test system: Malme-3M
NCI-H226 = test system: NCI-H226
NCI-H23 = test system: NCI-H23
NCI-H460 = test system: NCI-H460
NCI-H522 = test system: NCI-H522
NCI/ADR-RES = test system: NCI/ADR-RES
OVCAR-3 = test system: OVCAR-3
OVCAR-4 = test system: OVCAR-4
OVCAR-5 = test system: OVCAR-5
OVCAR-8 = test system: OVCAR-8
PC-3 = test system: PC-3
RPMI-8226 = test system: RPMI-8226
RXF 393 = test system: RXF 393
SF-268 = test system: SF-268
SF-295 = test system: SF-295
SF-539 = test system: SF-539
SK-MEL-28 = test system: SK-MEL-28
SK-MEL-2 = test system: SK-MEL-2
SK-MEL-5 = test system: SK-MEL-5
SK-OV-3 = test system: SK-OV-3
SN12C = test system: SN12C
SNB-19 = test system: SNB-19
SNB-75 = test system: SNB-75
SR = test system: SR
SW-620 = test system: SW-620
T47D = test system: T47D
TK-10 = test system: TK-10
U-251 = test system: U-251
UACC-257 = test system: UACC-257
UACC-62 = test system: UACC-62
UO-31 = test system: UO-31

## C(=C(c1ccc(OC2CCCCO2)cc1)c1ccc(OC2CCCCO2)cc1)c1ccccc1 (configuration not stated)
786-0
  GI50: 0.519 µM (active)
A498
  GI50: 1.31 µM (inactive)
A549
  GI50: 0.522 µM (active)
ACHN
  GI50: 1.06 µM (active)
BT-549
  GI50: 0.543 µM (active)
CAKI-1
  GI50: 0.637 µM (active)
CCRF-CEM
  GI50: 0.246 µM (active)
COLO 205
  GI50: 0.583 µM (active)
DU-145
  GI50: 0.838 µM (active)
EKVX
  GI50: 0.456 µM (active)
HCC 2998
  GI50: 0.723 µM (active)
HCT-116
  GI50: 0.412 µM (active)
HCT-15
  GI50: 0.8 µM
HL-60
  GI50: 0.233 µM (active)
HOP-62
  GI50: 0.925 µM (active)
HOP-92
  GI50: 0.524 µM (active)
HT-29
  GI50: 0.386 µM (active)
Hs-578T
  GI50: 1.13 µM (inactive)
IGROV-1
  GI50: 0.524 µM (active)
K562
  GI50: 0.35 µM (active)
KM12
  GI50: 0.156 µM (active)
LOX IMVI
  GI50: 0.232 µM (active)
M14
  GI50: 0.697 µM (active)
MCF7
  GI50: 0.0995 µM (active)
MDA-MB-231
  GI50: 0.361 µM (active)
MDA-MB-435
  GI50: 0.557 µM (active)
MDA-N
  GI50: 0.634 µM (active)
MOLT-4
  GI50: 0.392 µM (active)
Malme-3M
  GI50: 0.863 µM (active)
NCI-H226
  GI50: 1.21 µM (inactive)
NCI-H23
  GI50: 0.546 µM (active)
NCI-H460
  GI50: 0.395 µM (active)
NCI-H522
  GI50: 1.09 µM (active)
NCI/ADR-RES
  GI50: 0.883 µM (active)
OVCAR-3
  GI50: 0.577 µM (active)
OVCAR-4
  GI50: 0.392 µM (active)
OVCAR-5
  GI50: 1.06 µM (active)
OVCAR-8
  GI50: 0.598 µM (active)
PC-3
  GI50: 0.469 µM (active)
RPMI-8226
  GI50: 0.294 µM (active)
RXF 393
  GI50: 1.03 µM (active)
SF-268
  GI50: 1.09 µM (active)
SF-295
  GI50: 1.18 µM (inactive)
SF-539
  GI50: 1.53 µM (inactive)
SK-MEL-28
  GI50: 1.04 µM (active)
SK-MEL-2
  GI50: 1.4 µM (inactive)
SK-MEL-5
  GI50: 0.444 µM (active)
SK-OV-3
  GI50: 1.29 µM (inactive)
SN12C
  GI50: 1.02 µM (active)
SNB-19
  GI50: 1.26 µM (inactive)
SNB-75
  GI50: 0.605 µM (active)
SR
  GI50: 0.371 µM (active)
SW-620
  GI50: 0.54 µM (active)
T47D
  GI50: 0.526 µM (active)
TK-10
  GI50: 1.14 µM (inactive)
U-251
  GI50: 0.792 µM (active)
UACC-257
  GI50: 0.378 µM (active)
UACC-62
  GI50: 0.547 µM (active)
UO-31
  GI50: 0.895 µM (active)

## CC(=O)N1C(=O)/C(=C\C(=O)c2ccc(Cl)cc2)c2ccccc21
786-0
  GI50: 4.27 µM (inactive)
A498
  GI50: 19.2 µM (inactive)
A549
  GI50: 13.5 µM (inactive)
ACHN
  GI50: 9.31 µM (inactive)
BT-549
  GI50: 4.19 µM (inactive)
CAKI-1
  GI50: 13.3 µM (inactive)
CCRF-CEM
  GI50: 2.61 µM (inactive)
COLO 205
  GI50: 9.44 µM (inactive)
DU-145
  GI50: 17.1 µM (inactive)
EKVX
  GI50: 17.6 µM (inactive)
HCC 2998
  GI50: 15.9 µM (inactive)
HCT-116
  GI50: 9.29 µM (inactive)
HCT-15
  GI50: 6.73 µM
HL-60
  GI50: 2.28 µM (inactive)
HOP-62
  GI50: 20.1 µM (inactive)
HOP-92
  GI50: 18.3 µM (inactive)
HT-29
  GI50: 4.32 µM (inactive)
Hs-578T
  GI50: 19.5 µM (inactive)
IGROV-1
  GI50: 16.7 µM (inactive)
K562
  GI50: 12 µM (inactive)
KM12
  GI50: 16.9 µM (inactive)
LOX IMVI
  GI50: 2.3 µM (inactive)
M14
  GI50: 16.5 µM (inactive)
MCF7
  GI50: 21 µM (inactive)
MDA-MB-231
  GI50: 13.9 µM (inactive)
MDA-MB-435
  GI50: 14.1 µM (inactive)
MDA-N
  GI50: 14.4 µM (inactive)
MOLT-4
  GI50: 3.43 µM (inactive)
Malme-3M
  GI50: 16.3 µM (inactive)
NCI-H226
  GI50: 19.9 µM (inactive)
NCI-H23
  GI50: 15.6 µM (inactive)
NCI-H460
  GI50: 15 µM (inactive)
NCI-H522
  GI50: 10.9 µM (inactive)
NCI/ADR-RES
  GI50: 20.6 µM (inactive)
OVCAR-3
  GI50: 10.1 µM (inactive)
OVCAR-4
  GI50: 16.7 µM (inactive)
OVCAR-5
  GI50: 20 µM (inactive)
OVCAR-8
  GI50: 14.1 µM (inactive)
PC-3
  GI50: 11.4 µM (inactive)
RPMI-8226
  GI50: 24.4 µM (inactive)
RXF 393
  GI50: 15.3 µM (inactive)
SF-268
  GI50: 18 µM (inactive)
SF-295
  GI50: 21.1 µM (inactive)
SF-539
  GI50: 12.2 µM (inactive)
SK-MEL-28
  GI50: 14 µM (inactive)
SK-MEL-2
  GI50: 18.5 µM (inactive)
SK-MEL-5
  GI50: 19.2 µM (inactive)
SK-OV-3
  GI50: 22.8 µM (inactive)
SN12C
  GI50: 15.3 µM (inactive)
SNB-19
  GI50: 24.8 µM (inactive)
SNB-75
  GI50: 17.7 µM (inactive)
SR
  GI50: 2.48 µM (inactive)
SW-620
  GI50: 4.24 µM (inactive)
T47D
  GI50: 16.5 µM (inactive)
TK-10
  GI50: 15.6 µM (inactive)
U-251
  GI50: 15.5 µM (inactive)
UACC-257
  GI50: 14.9 µM (inactive)
UACC-62
  GI50: 13.4 µM (inactive)
UO-31
  GI50: 15.4 µM (inactive)

## O=S(=O)(CCCCl)SCCCCl
786-0
  GI50: 17.4 µM (inactive)
A498
  GI50: > 55.6 µM (inactive)
A549
  GI50: 68.4 µM (inactive)
ACHN
  GI50: 55.7 µM (inactive)
BT-549
  GI50: 11.2 µM (inactive)
CAKI-1
  GI50: > 57.1 µM (inactive)
CCRF-CEM
  GI50: 9.1 µM (inactive)
COLO 205
  GI50: 29 µM (inactive)
DU-145
  GI50: 63.8 µM (inactive)
EKVX
  GI50: > 100 µM (inactive)
HCC 2998
  GI50: > 100 µM (inactive)
HCT-116
  GI50: 20.9 µM (inactive)
HCT-15
  GI50: 23.3 µM
HL-60
  GI50: 9.91 µM (inactive)
HOP-62
  GI50: > 87.5 µM (inactive)
HOP-92
  GI50: 25 µM (inactive)
HT-29
  GI50: 25.9 µM (inactive)
Hs-578T
  GI50: 27.8 µM (inactive)
IGROV-1
  GI50: 37.5 µM (inactive)
K562
  GI50: 7.5 µM (inactive)
KM12
  GI50: 46.3 µM (inactive)
LOX IMVI
  GI50: 19.2 µM (inactive)
M14
  GI50: 21.5 µM (inactive)
MCF7
  GI50: 19.6 µM (inactive)
MDA-MB-231
  GI50: 29.9 µM (inactive)
MDA-MB-435
  GI50: 25.8 µM (inactive)
MDA-N
  GI50: 27 µM (inactive)
MOLT-4
  GI50: 3.17 µM (inactive)
Malme-3M
  GI50: 33.6 µM (inactive)
NCI-H226
  GI50: > 65.5 µM (inactive)
NCI-H23
  GI50: 45.1 µM (inactive)
NCI-H460
  GI50: 39.4 µM (inactive)
NCI-H522
  GI50: 17.1 µM (inactive)
NCI/ADR-RES
  GI50: 31.9 µM (inactive)
OVCAR-3
  GI50: 31.1 µM (inactive)
OVCAR-4
  GI50: 15.3 µM (inactive)
OVCAR-5
  GI50: > 64 µM (inactive)
OVCAR-8
  GI50: 13.3 µM (inactive)
PC-3
  GI50: 30.1 µM (inactive)
RPMI-8226
  GI50: 21.9 µM (inactive)
RXF 393
  GI50: 30.3 µM (inactive)
SF-268
  GI50: 26.7 µM (inactive)
SF-295
  GI50: > 64.9 µM (inactive)
SF-539
  GI50: 19.4 µM (inactive)
SK-MEL-28
  GI50: 39.3 µM (inactive)
SK-MEL-2
  GI50: 44.8 µM (inactive)
SK-MEL-5
  GI50: 30.7 µM (inactive)
SK-OV-3
  GI50: > 83 µM (inactive)
SN12C
  GI50: 25.1 µM (inactive)
SNB-19
  GI50: > 95.1 µM (inactive)
SNB-75
  GI50: 33 µM (inactive)
SR
  GI50: 10.4 µM (inactive)
SW-620
  GI50: 19.1 µM (inactive)
T47D
  GI50: 26.9 µM (inactive)
TK-10
  GI50: 74.6 µM (inactive)
U-251
  GI50: 45.9 µM (inactive)
UACC-257
  GI50: 45.9 µM (inactive)
UACC-62
  GI50: 36.1 µM (inactive)
UO-31
  GI50: 65.5 µM (inactive)
